Results taken from patent US9365551B2, “2-(benzyloxy) benzamides as LRRK2 kinase inhibitors” (Glaxo Group Limited, priority 2010, dated 2016).

Tests used:
[1] = target: T1, 6His-Tev-LRRK2 (1326-2527) (Homo sapiens, UniProt Q5S007); assay: LRRK2 peptide substrate assay; type: biochemical; conditions: mean pIC50 of multiple test results
T1 construct: A LRRK2 cDNA encoding residues 1326-2527 was received from Dundee University; made in house; host or cells: Spodoptera frugiperda (Sf9) insect cells, baculovirus (pFB-HTb)
T1 sequence (Q5S007 1326-2527): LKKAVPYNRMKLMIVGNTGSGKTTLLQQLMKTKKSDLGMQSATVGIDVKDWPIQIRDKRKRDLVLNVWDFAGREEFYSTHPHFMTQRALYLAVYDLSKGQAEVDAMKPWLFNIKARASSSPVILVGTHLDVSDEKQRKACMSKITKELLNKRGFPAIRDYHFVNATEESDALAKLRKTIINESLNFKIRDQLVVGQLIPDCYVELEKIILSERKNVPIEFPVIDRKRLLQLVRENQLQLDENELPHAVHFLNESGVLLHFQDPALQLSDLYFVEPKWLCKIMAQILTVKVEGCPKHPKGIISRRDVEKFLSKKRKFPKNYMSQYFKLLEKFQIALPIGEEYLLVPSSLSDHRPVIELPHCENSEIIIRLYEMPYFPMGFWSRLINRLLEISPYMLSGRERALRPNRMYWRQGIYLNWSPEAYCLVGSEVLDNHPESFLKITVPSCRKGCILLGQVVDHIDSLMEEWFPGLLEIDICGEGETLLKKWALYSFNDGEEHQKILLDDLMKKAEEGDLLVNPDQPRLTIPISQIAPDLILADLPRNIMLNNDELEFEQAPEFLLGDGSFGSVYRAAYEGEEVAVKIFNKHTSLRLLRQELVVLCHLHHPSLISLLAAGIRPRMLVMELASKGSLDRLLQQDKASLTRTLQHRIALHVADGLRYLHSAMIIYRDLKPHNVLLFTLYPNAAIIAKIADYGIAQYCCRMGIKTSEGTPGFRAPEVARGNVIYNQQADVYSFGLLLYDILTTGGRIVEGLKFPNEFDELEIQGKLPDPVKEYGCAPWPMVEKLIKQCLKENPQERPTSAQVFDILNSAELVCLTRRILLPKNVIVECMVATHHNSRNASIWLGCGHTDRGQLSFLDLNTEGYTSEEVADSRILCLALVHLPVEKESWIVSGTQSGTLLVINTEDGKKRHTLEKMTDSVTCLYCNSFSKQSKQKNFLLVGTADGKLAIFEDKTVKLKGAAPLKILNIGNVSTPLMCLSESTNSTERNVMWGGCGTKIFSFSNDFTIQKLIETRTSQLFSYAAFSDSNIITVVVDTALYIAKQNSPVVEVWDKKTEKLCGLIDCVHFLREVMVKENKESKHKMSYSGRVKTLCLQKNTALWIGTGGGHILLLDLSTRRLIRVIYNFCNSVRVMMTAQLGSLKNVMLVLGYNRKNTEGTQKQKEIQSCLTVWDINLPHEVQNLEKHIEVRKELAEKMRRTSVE
Experimental: (§1) Compounds of formula (I) may be tested for in vitro kinase activity in accordance with the following assays, using the non natural, in vitro, substrates moesin and the Longer Biotin-LRRKtide. Moesin and a shorter version of the peptide were identified as substrates in Jaleel et al. (2007, Biochem J, 405: 307-317).
LRRK2 Peptide Substrate Assay
a) 100 nl of a 1:4 serial dilution of test compound with a top final assay concentration of 30 μM is added to certain wells in a low volume 384 well black plate. 100 nl of DMSO is used in certain wells as controls.
(§2) b) 3 μl enzyme solution (80 nM purified recombinant 6His-Tev-LRRK2 (1326-2527) in assay buffer: 50 mM Hepes (pH 7.2), 10 mM MgCl2, 150 mM NaCl, 5% glycerol, 0.0025% triton X-100 and 1 mM DTT) is added to certain wells. 3 μl assay buffer is added to certain wells as a 100% inhibition (no enzyme) control. c) After incubation at room temperature for 30 minutes, 3 μl substrate solution (2 μM Biotin-LRRKtide peptide substrate and ATP at Km in assay buffer) is added to each well. Plates are then incubated for a further 1-2 hours at room temperature (incubation time varies depending upon rate and linearity of reaction with differing enzyme batches). d) 6 μl detection solution (50 nM Streptavidin SureLight® APC (PerkinElmer), 4 nM Eu-W1024 labelled anti-rabbit IgG antibody (PerkinElmer), 1:500 dilution (dilution determined on a batch to batch basis) of Phospho-Ezrin (Thr567)/Radixin (Thr564)/Moesin (Thr558) Polyclonal Antibody (New England Biolabs) and 60 mM EDTA in buffer: 40 mM Hepes (pH 7.2), 150 mM NaCl, 0.03% BSA) is added to each well. Plates are then incubated for a further 2 hours at room temperature before reading on a suitable plate reader (Excitation 330 nm, emission 620 nm (Eu) and 665 nm (APC)). Data is analysed using ActivityBase software (IDBS). LRRK2 AlphaScreen Desensitised Protein Substrate Assay a) 100 nl of a 1:4 serial dilution of test compound with a top final assay concentration of 30 μM is added to certain wells in a low volume 384 well black plate. 100 nl of DMSO is used in certain wells as controls. b) 3 μl enzyme solution (80 nM purified recombinant 6His-Tev-LRRK2 (1326-2527) in assay buffer: 50 mM Hepes (pH 7.2), 10 mM MgCl2, 150 mM NaCl, 5% glycerol, 0.0025% triton X-100 and 1 mM DTT) is added to certain wells. 3 μl assay buffer is added to certain wells as a 100% inhibition (no enzyme) control. c) After incubation at room temperature for 30 minutes, 3 μl substrate solution (200 nM GST-PS-Moesin (400-577) and 2 mM ATP in assay buffer) is added to each well. Plates are then incubated for 20 minutes at room temperature. d) 6 μl detection solution (1:250 dilution of AlphaLisa Protein A Acceptor beads (PerkinElmer), 1:64 dilution of AlphaLisa Gluthathione Donor beads (PerkinElmer) and 1:600 dilution (dilution determined on a batch to batch basis) of Phospho-Ezrin (Thr567)/Radixin (Thr564)/Moesin (Thr558) Polyclonal Antibody (New England Biolabs) in a buffer: 50 mM Hepes (pH 7.5), 250 mM NaCl, 60 mM EDTA, 1% PEG and 0.01% Brij 35) is added to each well. Plates are then incubated for a further 2 hours at room temperature in the dark before reading on an EnVision™ plate reader with AlphaScreen HTS turbo option module and AlphaScreen settings. Data is analysed using ActivityBase software (IDBS). Pharmacological Data

[2] = target: T1, 6His-Tev-LRRK2 (1326-2527); assay: LRRK2 AlphaScreen desensitised protein substrate assay; type: biochemical; conditions: mean pIC50 of multiple test results
Experimental: as §1, §2

[3] = Biotin-LRRKtide peptide substrate, ATP at Km, read-out: LRRK2 peptide substrate assay (pIC50) (converted)
[4] = stated as threshold, read-out: pIC50 in the LRRK2 peptide substrate assay (bounds) (converted)
[5] = GST-PS-Moesin (400-577) substrate, 2 mM ATP, read-out: LRRK2 alphascreen desensitized protein substrate assay (pIC50) (converted)
[6] = stated as threshold, read-out: pIC50 in the LRRK2 alphascreen desensitised protein substrate assay (bounds) (converted)

Compound | IC50 [1, 3] | IC50 [1, 4] | IC50 [2, 5] | IC50 [2, 6]
O=C(Nc1ccnnc1)c1cc(C(F)(F)F)c(C(=O)N2CCOCC2)cc1OCc1ccccc1 [Example 38, 4-(4-Morpholinylcarbonyl)-2-[(phenylmethyl)oxy]-N-4-pyridazinyl-5-(trifluoromethyl)benzamide] |  | ≤ 1260 nM |  | ≤ 25100 nM
O=C(Nc1cccnc1)c1cc(C(F)(F)F)c(C(=O)N2CCCCC2)cc1OCc1ccccc1 [Example 39, 2-[(Phenylmethyl)oxy]-4-(1-piperidinylcarbonyl)-N-3-pyridinyl-5-(trifluoromethyl)benzamide] | 15.8 nM | ≤ 100 nM | 316 nM | ≤ 316 nM
O=C(Nc1ccnnc1)c1cc(C(F)(F)F)c(C(=O)N2CCCCC2)cc1OCc1ccccc1 [Example 40, 2-[(Phenylmethyl)oxy]-4-(1-piperidinylcarbonyl)-N-4-pyridazinyl-5-(trifluoromethyl)benzamide] |  | ≤ 1260 nM |  | ≤ 25100 nM
O=C(Nc1cccnc1)c1cc(Cl)c(C(=O)N2CCC(F)(F)C2)cc1OCc1ccccc1 [Example 41, 5-Chloro-4-[(3,3-difluoro-1-pyrrolidinyl)carbonyl]-2-[(phenylmethyl)oxy]-N-3-pyridinylbenzamide] |  | ≤ 100 nM |  | ≤ 316 nM
O=C(Nc1ccnnc1)c1cc(Cl)c(C(=O)N2CCC(F)(F)C2)cc1OCc1ccccc1 [Example 42, 5-Chloro-4-[(3,3-difluoro-1-pyrrolidinyl)carbonyl]-2-[(phenylmethyl)oxy]-N-4-pyridazinylbenzamide] | 50.1 nM | ≤ 100 nM | 501 nM | ≤ 25100 nM
Cc1nocc1NC(=O)c1cc(Cl)c(C(=O)N2CCC(F)(F)C2)cc1OCc1ccccc1 [Example 43, 5-Chloro-4-[(3,3-difluoro-1-pyrrolidinyl)carbonyl]-N-(3-methyl-4-isoxazolyl)-2-[(phenylmethyl)oxy]benzamide] |  | ≤ 100 nM |  | ≤ 25100 nM
CN1CCN(C(=O)c2cc(OCc3ccccc3)c(C(=O)Nc3ccnnc3)cc2Cl)CC1 [Example 55, 2-(benzyloxy)-5-chloro-4-(4-methylpiperazine-1-carbonyl)-N-(pyridazin-4-yl)benzamide] |  | ≤ 100 nM |  | ≤ 316 nM

The next lines start with results.

IC50 [1, 3] | IC50 [1, 4] | Compound | IC50 [2, 5] | IC50 [2, 6]
39.8 nM | ≤ 100 nM | O=C(Nc1cccnc1)c1cc(C(F)(F)F)c(C(=O)N2CCOCC2)cc1OCc1ccccc1 [Example 37, 4-(4-Morpholinylcarbonyl)-2-[(phenylmethyl)oxy]-N-3-pyridinyl-5-(trifluoromethyl)benzamide] | 794 nM | ≤ 25100 nM
31.6 nM | ≤ 100 nM | O=C(Nc1cccnc1)c1cc(Cl)c(C(=O)N2CCOCC2)cc1OCc1ccccc1 [Example 44, 5-Chloro-4-(4-morpholinylcarbonyl)-2-[(phenylmethyl)oxy]-N-3-pyridinylbenzamide] | 158 nM | ≤ 316 nM
 | ≤ 10 nM | O=C(Nc1cccc(Cl)c1)c1cc(Cl)c(C(=O)N2CCOCC2)cc1OCc1ccccc1 [Example 45, 5-Chloro-N-(3-chlorophenyl)-4-(4-morpholinylcarbonyl)-2-[(phenylmethyl)oxy]benzamide] |  | ≤ 316 nM
 | ≤ 100 nM | O=C(Nc1ccnnc1)c1cc(Cl)c(C(=O)N2CCOCC2)cc1OCc1ccccc1 [Example 46, 5-Chloro-4-(4-morpholinylcarbonyl)-2-[(phenylmethyl)oxy]-N-4-pyridazinylbenzamide] |  | ≤ 25100 nM
10 nM | ≤ 10 nM | Cn1cc(-c2cc(C(=O)Nc3cccc(F)c3)c(OCc3ccc(F)cc3)cc2C(=O)N2CCOCC2)cn1 [Example 47, 2-((4-fluorobenzyl)oxy)-N-(3-fluorophenyl)-5-(1-methyl-1H-pyrazol-4-yl)-4-(morpholine-4-carbonyl)benzamide] | 126 nM | ≤ 316 nM
6.31 nM | ≤ 10 nM | Cn1cc(-c2cc(C(=O)Nc3cccc(Cl)c3)c(OCc3ccc(F)cc3)cc2C(=O)N2CCOCC2)cn1 [Example 48, N-(3-chlorophenyl)-2-((4-fluorobenzyl)oxy)-5-(1-methyl-1H-pyrazol-4-yl)-4-(morpholine-4-carbonyl)benzamide] | 15.8 nM | ≤ 316 nM
 | ≤ 100 nM | Cn1cc(-c2cc(C(=O)Nc3cccc(Cl)c3)c(OCc3ccccc3)cc2CN2CCOCC2)cn1 [Example 49, 2-(benzyloxy)-N-(3-chlorophenyl)-5-(1-methyl-1H-pyrazol-4-yl)-4-(morpholinomethyl)benzamide] |  | > 25100 nM
 | ≤ 1260 nM | O=C(Nc1cccc(Cl)c1)c1cc(C(F)(F)F)c(CN2CCOCC2)cc1OCc1ccccc1 [Example 52, 2-(Benzyloxy)-N-(3-chlorophenyl)-4-(morpholinomethyl)-5-(trifluoromethyl)benzamide] |  | > 25100 nM
 | ≤ 10 nM | O=C(Nc1cccc(F)c1)c1cc(C(F)(F)F)c(CN2CCOCC2)cc1OCc1ccccc1 [Example 53, 2-(Benzyloxy)-N-(3-fluorophenyl)-4-(morpholinomethyl)-5-(trifluoromethyl)benzamide] |  | > 25100 nM
